These results are taken from PubChem BioAssay AID248 (DTP/NCI, 2004).

“And” between values parts separate entries of the source, which are not always exact repeats. Equal values may be shown once. Inconclusive results and toxic doses are left out.

The experiment concerns L1210 leukemia ip in BDF1 mice, survival T/C. The experiment in a line: NCI In Vivo Anticancer Drug Screen. Data for tumor model L1210 Leukemia (intraperitoneal) in B6D2F1 (BDF1) mice. As to conditions: endpoint: mean survival time, higher = longer survival. A digest of the protocol: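 Transplanted-tumor mice were given test agent; controls received vehicle only. Survival readings from the two groups were divided (treated over control).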

Setting [1] is: dose: 100.0 mg/kg/injection, schedule: Q01DX001 (ip), vehicle: other.
Setting [2] is: dose: 100.0 mg/kg/injection, schedule: Q04DX003 (ip), vehicle: other.
Setting [3] is: dose: 200.0 mg/kg/injection, schedule: Q01DX001 (ip), vehicle: other.
Where [4] appears, read: dose: 200.0 mg/kg/injection, schedule: Q04DX003 (ip), vehicle: other.
[5] abbreviates: dose: 400.0 mg/kg/injection, schedule: Q01DX001 (ip), vehicle: other.
The mark [6] stands for this setting: dose: 100.0 mg/kg/injection, schedule: Q01DX009 (ip), vehicle: saline with Tween-80.
[7] abbreviates: dose: 100.0 mg/kg/injection, schedule: Q04DX003 (ip), vehicle: saline with Tween-80.
[8] abbreviates: dose: 200.0 mg/kg/injection, schedule: Q01DX009 (ip), vehicle: saline with Tween-80.
[9] abbreviates: dose: 200.0 mg/kg/injection, schedule: Q04DX003 (ip), vehicle: saline with Tween-80.
[10] abbreviates: dose: 400.0 mg/kg/injection, schedule: Q04DX003 (ip), vehicle: saline with Tween-80.
Where [11] appears, read: dose: 50.0 mg/kg/injection, schedule: Q01DX009 (ip), vehicle: saline with Tween-80.
Where [12] appears, read: dose: 50.0 mg/kg/injection, schedule: Q01DX001 (ip), vehicle: Klucel (hydroxypropylcellulose) (HPC).
Where [13] appears, read: dose: 100.0 mg/kg/injection, schedule: Q01DX001 (ip), vehicle: Klucel (hydroxypropylcellulose) (HPC).
[14] abbreviates: dose: 100.0 mg/kg/injection, schedule: Q01DX001 (ip), vehicle: carboxymethylcellulose (CMC).
[15] abbreviates: dose: 200.0 mg/kg/injection, schedule: Q01DX001 (ip), vehicle: carboxymethylcellulose (CMC).

As for `CC(=O)N(C)C1=C(Sc2ccc([N+](=O)[O-])cc2)C(=O)c2ccccc2C1=O`, the T/C was 92 % of control (dose: 50.0 mg/kg/injection, schedule: Q04DX003 (ip), vehicle: other); 97 % of control under setting [1]; 97 % of control under setting [2]; 96 % of control under setting [3]; 86 % of control under setting [4]; 92 % of control under setting [5].

Regarding `O=C1C(Cl)=C(Cl)C(=O)N1c1ccc(Cl)c(Cl)c1`, the T/C reads like this: under setting [6], 98 % of control; under setting [7], 91 % of control; under setting [8], 101 % of control; under setting [9], 87 % of control; under setting [10], 94 % of control.

Consider `[B]N1C(C)=CC=CC1C` (configuration not stated), for which the T/C reads like this: under setting [11], 92 % of control; under setting [6], 92 % of control; under setting [8], 89 % of control.

Take `NN1C(=O)c2ccccc2C1=O`: the T/C is, setting by setting: under setting [6], 100 % of control; under setting [8], 95 % of control; (dose: 400.0 mg/kg/injection, schedule: Q01DX009 (ip), vehicle: saline with Tween-80) 92 % of control.

With `CCOC(=O)CC1=C(c2ccc(OC)cc2)c2ccc(OC)cc2C1=O`, the T/C reads like this: under setting [12], 98 % of control; under setting [13], 98 % of control; (dose: 200.0 mg/kg/injection, schedule: Q01DX001 (ip), vehicle: Klucel (hydroxypropylcellulose) (HPC)) 95 % of control.

Turning to `O=C(O)c1cccc(C2CC2)c1`, the T/C was 95 % of control under setting [1]; 97 % of control under setting [2]; 97 % of control under setting [3]; 97 % of control under setting [4]; 98 % of control under setting [5]; 97 % of control (dose: 400.0 mg/kg/injection, schedule: Q04DX003 (ip), vehicle: other).

For the compound `COc1cc(C=Nc2cc(Cl)cc(Cl)c2)ccc1N(CCCl)CCCl`, the T/C is 114 % of control and 116 % of control (dose: 10.5 mg/kg/injection, schedule: Q01DX015 (ip), vehicle: carboxymethylcellulose (CMC)); 113 % of control and 117 % of control (dose: 18.0 mg/kg/injection, schedule: Q01DX015 (ip), vehicle: carboxymethylcellulose (CMC)); 123 % of control (dose: 30.0 mg/kg/injection, schedule: Q01DX015 (ip), vehicle: carboxymethylcellulose (CMC)); 123 % of control (dose: 50.0 mg/kg/injection, schedule: Q01DX001 (ip), vehicle: carboxymethylcellulose (CMC)); 105 % of control (dose: 50.0 mg/kg/injection, schedule: Q01DX001 (ip), vehicle: other); 122 % of control (dose: 50.0 mg/kg/injection, schedule: Q01DX015 (ip), vehicle: carboxymethylcellulose (CMC)). The T/C is, setting by setting: under setting [14], 157 % of control; under setting [1], 118 % of control; (dose: 150.0 mg/kg/injection, schedule: Q01DX001 (ip), vehicle: carboxymethylcellulose (CMC)) 116 % of control; under setting [15], 123 % of control; under setting [3], 123 % of control; under setting [5], 111 % of control. The T/C (dose: 800.0 mg/kg/injection, schedule: Q01DX001 (ip), vehicle: other) was 120 % of control.

Turning to `CS(=O)(=O)c1nc2[nH]c(=O)[nH]c(=O)c2cc1C#N`, the T/C (dose: 25.0 mg/kg/injection, schedule: Q01DX001 (ip), vehicle: Klucel (hydroxypropylcellulose) (HPC)) is 93 % of control; the T/C under setting [12] was 98 % of control; the T/C under setting [13] was 97 % of control.

On to `CCCCCCCCCCCCSC(=O)Nc1cc([N+](=O)[O-])ccc1C`, for which the T/C (dose: 100.0 mg/kg/injection, schedule: Q04DX003 (ip), vehicle: Klucel (hydroxypropylcellulose) (HPC)) was 92 % of control; the T/C (dose: 200.0 mg/kg/injection, schedule: Q04DX003 (ip), vehicle: Klucel (hydroxypropylcellulose) (HPC)) was 88 % of control; the T/C (dose: 400.0 mg/kg/injection, schedule: Q04DX003 (ip), vehicle: Klucel (hydroxypropylcellulose) (HPC)) was 88 % of control.

For the compound `Cc1cc2c(C)c3cc(C)c(C)c(C)c3cc2c(C)c1C`, the T/C is, setting by setting: (dose: 25.0 mg/kg/injection, schedule: Q01DX005 (ip), vehicle: water) 114 % of control; (dose: 50.0 mg/kg/injection, schedule: Q01DX005 (ip), vehicle: water) 94 % of control; (dose: 100.0 mg/kg/injection, schedule: Q01DX005 (ip), vehicle: water) 94 % of control and 97 % of control; (dose: 200.0 mg/kg/injection, schedule: Q01DX005 (ip), vehicle: water) 96 % of control; (dose: 400.0 mg/kg/injection, schedule: Q01DX005 (ip), vehicle: water) 100 % of control.

As to `CCCCCCCCCCOP1(=O)C=C(C)CC1` (configuration not stated), the T/C was 93 % of control under setting [7] and 93 % of control under setting [9].

For `CCNC(=O)OCCN1C(=O)C2C3CCC(O3)C2C1=O` (configuration not stated), the T/C by setting is: (dose: 100.0 mg/kg/injection, schedule: Q01DX001 (ip), vehicle: saline with Tween-80) 98 % of control; under setting [7], 100 % of control; (dose: 200.0 mg/kg/injection, schedule: Q01DX001 (ip), vehicle: saline with Tween-80) 103 % of control; under setting [9], 100 % of control; (dose: 400.0 mg/kg/injection, schedule: Q01DX001 (ip), vehicle: saline with Tween-80) 113 % of control; under setting [10], 97 % of control.

For the compound `CCOc1n[n+]([O-])c(Cl)c(C)c1[N+](=O)[O-]`, the T/C was 96 % of control (dose: 25.0 mg/kg/injection, schedule: Q04DX002 (ip), vehicle: saline with Tween-80); 92 % of control (dose: 50.0 mg/kg/injection, schedule: Q04DX002 (ip), vehicle: saline with Tween-80); 96 % of control (dose: 100.0 mg/kg/injection, schedule: Q04DX002 (ip), vehicle: saline with Tween-80).

Consider `CCOC(=O)Nc1cc2ccncc2c2sc3ccccc3c12`, for which the T/C was 92 % of control (dose: 100.0 mg/kg/injection, schedule: Q04DX003 (ip), vehicle: water); 87 % of control (dose: 200.0 mg/kg/injection, schedule: Q04DX003 (ip), vehicle: water); 101 % of control (dose: 400.0 mg/kg/injection, schedule: Q04DX003 (ip), vehicle: water).

In the case of `Clc1nc2nc(Cl)n(Cl)c2nc1Cl`, the T/C runs as follows: under setting [11], 96 % of control; under setting [6], 95 % of control; under setting [7], 98 % of control; under setting [8], 91 % of control; under setting [9], 89 % of control; under setting [10], 96 % of control.

`C[N+]1(CCCl)CC[N+](C)(CCCl)CC1` (configuration not stated): the T/C by setting is: under setting [14], 101 % of control; (dose: 100.0 mg/kg/injection, schedule: Q01DX009 (ip), vehicle: carboxymethylcellulose (CMC)) 97 % of control and 92 % of control; (dose: 100.0 mg/kg/injection, schedule: Q01DX009 (ip), vehicle: saline) 97 % of control; (dose: 100.0 mg/kg/injection, schedule: Q04DX002 (ip), vehicle: carboxymethylcellulose (CMC)) 97 % of control; (dose: 100.0 mg/kg/injection, schedule: Q04DX002 (ip), vehicle: saline) 112 % of control; (dose: 100.0 mg/kg/injection, schedule: Q04DX003 (ip), vehicle: carboxymethylcellulose (CMC)) 97 % of control. Besides, the T/C is, setting by setting: under setting [15], 105 % of control; (dose: 200.0 mg/kg/injection, schedule: Q01DX009 (ip), vehicle: carboxymethylcellulose (CMC)) 97 % of control and 100 % of control; (dose: 200.0 mg/kg/injection, schedule: Q01DX009 (ip), vehicle: saline) 101 % of control; (dose: 200.0 mg/kg/injection, schedule: Q04DX002 (ip), vehicle: carboxymethylcellulose (CMC)) 100 % of control and 103 % of control; (dose: 200.0 mg/kg/injection, schedule: Q04DX002 (ip), vehicle: saline) 105 % of control; (dose: 200.0 mg/kg/injection, schedule: Q04DX003 (ip), vehicle: carboxymethylcellulose (CMC)) 100 % of control. Besides, the T/C (dose: 400.0 mg/kg/injection, schedule: Q01DX001 (ip), vehicle: carboxymethylcellulose (CMC)) is 97 % of control; the T/C (dose: 400.0 mg/kg/injection, schedule: Q01DX009 (ip), vehicle: carboxymethylcellulose (CMC)) was 101 % of control and 91 % of control; the T/C (dose: 400.0 mg/kg/injection, schedule: Q01DX009 (ip), vehicle: saline) is 101 % of control; the T/C (dose: 400.0 mg/kg/injection, schedule: Q04DX002 (ip), vehicle: carboxymethylcellulose (CMC)) was 93 % of control; the T/C (dose: 400.0 mg/kg/injection, schedule: Q04DX003 (ip), vehicle: carboxymethylcellulose (CMC)) is 103 % of control.
